From publication PMC4821887, “Identification of chemicals that mimic transcriptional changes associated with autism, brain aging and neurodegeneration” (Nature Communications, 2016)
“Also recorded” adds a separate entry of the source.

Key:
[1] = tested on: mouse cortical neuron cultures; experiment: Fluorescence immunocytochemistry for cellular composition (NeuN, Gfap, Iba1); format: cell-based; conditions: 10 μM, 24 h, relative to vehicle
[2] = tested on: mitochondrial superoxide in cortical neurons; experiment: Mitochondrial superoxide detection (MitoSOX Red live-cell imaging); format: cell-based, mouse; conditions: 2 h treatment, MitoSOX, vincristine 500 µM in Supplementary Fig. 10b
[3] = tested on: mouse cortical neuron cultures; conditions: mouse, 24 h, 10 µM
[4] = tested on: mouse cortical neuron-enriched cultures; experiment: RNA-seq transcriptional screen with hierarchical clustering and cluster membership; format: cell-based; conditions: 24 h at non-toxic concentration; hierarchical clustering of 5,121 variably expressed genes
Method: Cultures were treated with the non-cytotoxic dose of each chemical, by exchanging half of the original medium with chemicals at 2 × concentration in prewarmed feeding medium, on DIV 7 for 24 h in 12-well plates at a density of 5 × 10^5 cells per well. RNA was isolated using RNeasy plus mini kit (Cat. #74134, Qiagen). RNA yield and quality were determined using a Nanodrop 1000 Spectrophotometer (Thermo Scientific). Samples were further assessed for quality using either an Agilent Bioanalyzer 2100 or TapeStation 2200 to obtain a RIN. RIN values exceeding 7 were used for sequencing. RNA samples were used to generate and barcode complementary DNA libraries using the TruSeq RNA Library Preparation Kit at the UNC High Throughput Sequencing Facility. Pools of 24 multiplexed samples were sequenced per lane on an Illumina HiSeq 2500 using 50-bp paired-end reads.
RNA-seq reads were filtered using TagDust and aligned to the reference mouse genome (mm9) with TopHat using default parameters. Reads aligning to ribosomal RNA genes were removed. Transcript abundance was estimated by computing Reads per kilobase per million mapped reads (RPKM) using RefSeq gene models aggregated by gene symbol. For differential expression analyses, raw counts over RefSeq exons were used, and then were compared across samples using DESeq[62].
RPKMs for all RefSeq genes and all samples were filtered such that a given gene had >90% of samples with RPKM >0 and gene length exceeded 500 bp. RPKMs were then log10-transformed, quantile-normalized, median-centred, and the effects due to culture or sequencing batch were removed using a mixed model analysis of variance. This batch correction step was performed on individual experiments rather than chemical–vehicle ratios to reduce the effects due to variations in culture composition as well as batch-to-batch variations at the level of sequencing. Genes were then median-centred again, and filtered such that their s.d. exceeded 0.1. Chemical replicates were then combined using the median. Classes of chemicals were then discovered in two ways. First, we performed hierarchical clustering using average linkage and Pearson correlation distance measures. The boundaries of the discovered classes from clustering were set by computing pairwise Spearman correlations for all samples. A given cluster had to have at least three members with the minimum pairwise Spearman correlation coefficient exceeding 0.2, though cluster members often exceeded a correlation of 0.6 (Supplementary Fig. 5c,d). Seven chemical clusters were discovered, however one was removed due to failing to have a positive silhouette width, a metric of cluster robustness. These definitions enabled the three positive control topoisomerase inhibitors to form a cohesive group of chemicals with known structural and functional similarity (cluster 5). None of the culture or sequencing batches contributed to the formation of any one of the final six clusters (Supplementary Fig. 4).

purified tubulin = experiment: Tubulin polymerization assay (cell-free, BK011P); format: biochemical; conditions: 37 °C, fluorescence over 60 min, equimolar doses

CSC1=N[C@@](C)(c2ccccc2)C(=O)N1Nc1ccccc1 [fenamidone]
Change in cellular composition (number of NeuN, Gfap or Iba1 positive cells) [1]: did not; also recorded: no significant change | Mitochondrial superoxide (O2−) production [2]: dose dependent | Mitochondrial superoxide (O2−) production ([2]; listed as Fenamidone): concentration-dependent increase | % Dead cells (vehicle subtracted) [3]: 1.638% | Chemical cluster assigned by gene expression [4]: cluster 2 | Effect on tubulin polymerization (purified tubulin): did not impair
